Reference: patent publication US5153181A, “Pharmaceutical compositions comprising organic polymers containing inorganic anionic groups and method of prophylaxis and treatment of retrovirus infections in mammals using said compositions” (priority 1986, dated 1992)
Where two headings read alike, the source gives them in different places.

How the values were obtained:
[1] = biological target: T1, SR-D-associated reverse transcriptase (Rous sarcoma virus - Schmidt-Ruppin B, UniProt O92956); assay type: biochemical
T1 construct: alpha/beta heterodimer cut from Gag-Pol polyprotein
T1 sequence (O92956 709-1567): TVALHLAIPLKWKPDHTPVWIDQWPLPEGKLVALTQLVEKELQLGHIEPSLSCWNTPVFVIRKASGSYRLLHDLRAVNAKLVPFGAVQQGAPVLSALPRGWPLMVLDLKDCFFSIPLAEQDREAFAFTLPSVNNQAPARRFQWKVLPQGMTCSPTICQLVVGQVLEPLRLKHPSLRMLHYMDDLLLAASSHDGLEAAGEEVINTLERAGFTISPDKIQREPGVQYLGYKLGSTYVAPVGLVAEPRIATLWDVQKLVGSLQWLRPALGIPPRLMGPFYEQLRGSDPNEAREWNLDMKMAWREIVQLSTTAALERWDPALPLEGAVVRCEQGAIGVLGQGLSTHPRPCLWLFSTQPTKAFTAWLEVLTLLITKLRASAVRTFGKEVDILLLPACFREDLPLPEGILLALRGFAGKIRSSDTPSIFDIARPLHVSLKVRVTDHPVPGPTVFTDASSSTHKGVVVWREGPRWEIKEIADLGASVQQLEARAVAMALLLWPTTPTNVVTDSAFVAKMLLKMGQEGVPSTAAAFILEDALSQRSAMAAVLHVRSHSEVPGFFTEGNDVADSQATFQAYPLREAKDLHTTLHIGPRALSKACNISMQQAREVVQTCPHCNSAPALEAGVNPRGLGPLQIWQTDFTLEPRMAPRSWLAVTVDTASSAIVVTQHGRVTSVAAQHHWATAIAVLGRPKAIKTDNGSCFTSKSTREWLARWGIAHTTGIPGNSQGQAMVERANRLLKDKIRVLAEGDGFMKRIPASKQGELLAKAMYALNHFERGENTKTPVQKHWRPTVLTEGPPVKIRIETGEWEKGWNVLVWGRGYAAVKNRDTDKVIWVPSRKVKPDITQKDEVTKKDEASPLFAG

[2] = known from the literature; cited from earlier work
[3] = LD50 taken from published literature; settings: in vivo; calculated from MW
Description: The LD50 values are known from the literature.
The results shown in FIGS. 1A and B allow to determine the concentration of the inhibitors which result in 90% or 99% inhibition. The quotient of the LD50 values (taken from published literature) and the inhibitor concentrations indicated in FIG. 1 is the efficiency index shown in Table I.

[4] = cited from earlier work
[5] = poly(rA) template, oligo(dT)10 primer, FIGS. 1A and B

heparin
Inhibition of RNA-dependent DNA synthesis (3H-TMP incorporation) [1, 5]: Low inhibitory effect

dextran sulfate MW 8,000
Inhibition of RNA-dependent DNA synthesis (3H-TMP incorporation) [1, 5]: efficient inhibitors

chondroitin sulfate
Inhibition of RNA-dependent DNA synthesis (3H-TMP incorporation) [1, 5]: Low inhibitory effect

pentosan polysulfate MW 5,000
Inhibition of RNA-dependent DNA synthesis (3H-TMP incorporation) [1, 5]: Somewhat less inhibitory

dextran
Inhibition of RNA-dependent DNA synthesis (3H-TMP incorporation) [1, 5]: Low inhibitory effect

diethylamine ethyl-dextran [DEAE-dextran]
Inhibition of RNA-dependent DNA synthesis (3H-TMP incorporation) [1, 5]: Low inhibitory effect

Cc1ccc(C(=O)Nc2ccc(S(=O)(=O)O)c3cc(S(=O)(=O)O)cc(S(=O)(=O)O)c23)cc1NC(=O)c1cccc(NC(=O)Nc2cccc(C(=O)Nc3cc(C(=O)Nc4ccc(S(=O)(=O)O)c5cc(S(=O)(=O)O)cc(S(=O)(=O)O)c45)ccc3C)c2)c1 [suramin]
Inhibition of RNA-dependent DNA synthesis (3H-TMP incorporation) [1]: Somewhat less inhibitory | LD50 [2]: 40 mg/kg

dextran sulfate MW 5000
Inhibition of RNA-dependent DNA synthesis (3H-TMP incorporation) [1, 5]: Low inhibitory effect

O=C(O)P(=O)(O)O [foscarnet]
Inhibition of RNA-dependent DNA synthesis (3H-TMP incorporation) [1, 5]: Somewhat less inhibitory | LD50 [3]: 500 mg/kg | Toxicity in clinical trials [4]: considerable toxicity

dextran sulfate MW 500,000
Inhibition of RNA-dependent DNA synthesis (3H-TMP incorporation) [1, 5]: efficient inhibitors
